Results as given in US20160008339A1, “PSORALEN DERIVATIVES FOR PREVENTING OR TREATING HEART FAILURE OR CARDIAC HYPERTROPHY” (MAX-DELBRUCK-CENTRUM FUR MOLEKULARE MEDIZIN, priority 2012, published 2016).

How the values were obtained:
[1] = biological target: T1, AKAP-Lbc (guanine nucleotide exchange on RhoA) (Homo sapiens, UniProt Q12802); assay: RhoGEF nucleotide exchange assay (GDP against mGTP on RhoA); conditions: IC50 (fifty percent inhibition of nucleotide exchange), 15 min
T1 sequence (Q12802 1994-2333): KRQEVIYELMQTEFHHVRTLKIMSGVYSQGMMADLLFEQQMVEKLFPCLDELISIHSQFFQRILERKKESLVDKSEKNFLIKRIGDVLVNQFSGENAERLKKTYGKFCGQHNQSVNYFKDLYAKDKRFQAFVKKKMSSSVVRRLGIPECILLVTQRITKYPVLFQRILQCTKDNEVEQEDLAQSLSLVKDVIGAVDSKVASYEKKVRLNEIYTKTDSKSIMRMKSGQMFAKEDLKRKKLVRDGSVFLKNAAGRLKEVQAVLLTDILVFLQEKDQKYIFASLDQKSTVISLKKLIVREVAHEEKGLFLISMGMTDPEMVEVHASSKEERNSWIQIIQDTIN

[2] = system: primary neonatal rat cardiomyocytes; assay: Beat rate of neonatal cardiomyocytes counted by light microscope; assay type: cell-based; conditions: PE 100 μmol/L for six hours, from 100 bpm
Method: For cultivation of primary neonatal rat cardiomyocytes, hearts of two to three days old rats were obtained and quickly stored on ice in ADS buffer (116.4 mM NaCl, 5.4 mM KC, 5.6 mM dextrose, 10.9 mM NaH2PO4, 405.7 μmol/L MgSO4, 20 mM Hepes, pH 7.3). Under sterile conditions, the hearts were cleaned from blood and vessels, cut into small pieces and transferred into falcon tubes. The ADS buffer was exchanged against an enzyme solution (see table below). Within four cycles each with five ml enzyme solution and an enzyme mix comprising collagenase and pancreatin, isolated cells were released from the tissue (12 min at 37° C. in a water bath with approx. 220 rpm).
The supernatant with the isolated cells was collected, transferred in fetal calf serum (FCS, 2.5 ml on ice) and subsequently centrifugated in FCS (100 g for 3 min at 4° C.). The supernatant of the centrifugation was discarded and the pellet was resuspended in 5 ml cold plating medium. After an additional centrifugation, the pellet was resuspended in 15 ml medium, transferred into a dish and incubated for two hours at 37° C. to allow the settling of the fibroblasts. The cardiomyocytes in the supernatant were counted with a Scepter Handheld Automated Cell Counter and transferred in dishes coated with gelatine. On the following day the medium was changed.
The neonatal cardiomyocytes were seeded in 6-well plates with 1.5×10^6 cell per well. The stimulation with 100 μmol/L phenylephrine (PE) was performed for six or twenty four hours at 37° C. Untreated cells served as control. The effect of compound 31413 on the α-adrenergic stimulation of the cardiomyocytes was determined after incubation with the compound for three hours. To do this, the contraction of the cells was counted within a minute and different conditions were compared.
Isolated neonatal cardiomyocytes were used to investigate the relation between AKAP-Lbc induced RhoA activation and the contractility of the heart. After a chronic stimulation of the α1-adreno receptors (AR) with the specific agonist PE for six hours, the beats of the cardiomyocytes were counted over a period of 15 s and a beat rate per minute (bpm) was calculated. An increase of the beat rate of the cardiomyocytes from 100 bpm to 160 beats per minute could be observed. […] The beat rate of neonatal cardiomyocytes was counted with help of a light microscope.

[3] = system: primary neonatal rat cardiomyocytes; assay: Beat frequency of neonatal cardiomyocytes by Fluo-4 calcium measurement; assay type: cell-based; conditions: Fluo-4, from 100 bpm
Method: The frequency of contraction could be determined in a similar manner with a calcium sensor (Fluo-4). In a laser-scanning microscope, Fluo-4 was excited with an argon laser (488 nm) and the emission signals were detected and collected at a wavelength of 505 nm. The fluorescence intensity represented the intracellular concentration of calcium ions. Usually, the line-scan mode was used for image recording, and the line-scan images were recorded with a speed of 1.54 or 1.92 ms per line along the longitudinal axis of the cell. After the sequential image recording, a two-dimensional image with 512×100 lines or 512×2000 lines was generated and saved for later analysis.
Additional calcium measurements were performed. […] The fluorescence dye Fluo-4 was added after 20 min. Fluo-4 is a calcium sensor, which is used for investigating the calcium increase in cells. In cardiomyocytes the dye serves for examining the contractility. During contraction and relaxation, the calcium concentrations differ in the cytosol of cardiomyocytes. The fluorescence intensity of Fluo-4 increases with an increasing calcium concentration, and a decreasing calcium concentration will cause reduced fluorescence intensity. A frequency could be calculated from the fluo-4 fluorescence oscillation by a time depended analysis, wherein the fluorescence was measured over a period of two hours. The ground state at the moment before application (black), the period 10 to 30 sec after application (dark grey) and 70 to 110 sec after application (light grey) were evaluated (FIG. 5). Application refers to the adding of PE or adrenaline. […] The statistical analysis was performed according to the method of analysis of variance (ANOVA).

[4] = system: primary neonatal cardiomyocytes (α-sceletal muscle actin mRNA); assay: Hypertrophy marker α-actin 1 mRNA by quantitative real-time PCR; assay type: cell-based, rat; conditions: PE 100 μmol/L, 24 hours
Method: Primary neonatal cardiomyocytes were prepared as described above. The cardiomyocytes were stimulated for 24 or 48 hours with 100 μmol/L phenylephrin (PE) or 10 μmol/L isoproterenol (ISO) in absence or presence of 10 μmol/L or 50 μmol/L of compound 31413.
After 24 hours or 48 hour of stimulation, the medium was removed, and every well was washed with 2 ml phosphate buffered saline and fixed with 200 μl TRIzol. The cells were removed from each well and transferred into a 1.5 ml Eppendorf tube, respectively.
For cell breakdown, 40 μl chloroform was added to each Eppendorf tube. The broken cells were centrifuged for 15 min at 1400 g and 4° C. The supernatant containing RNA/DNA was taken, mixed with 100 μl isopropanol and centrifugated for 20 min at 1500 g and 4° C. The supernatant was discarded and the pellet was resuspended in 500 μL ethanol. The RNA from the pellet was purified by chromatography. The concentration of the RNA was determined by NANODROP.
The quantification of the hypertrophy marker α-sceletal muscle actin (α-actin 1) mRNA was performed by quantitative real-time PCR. First, the RNA was transcribed to a cDNA with a SuperScript™III First-Strand Synthesis SuperMix (Invitrogen) and random hexamer primers. The cDNA was amplified in a PCR reaction in an Applied Biosystem StepOne™ Real-Time PCR System. Glycerinealdehydephosphate dehydrogenase and NTC (no template control) was used as controls. All samples were triplicates. The following primers have been used: […]

[5] = system: 3T3 mouse fibroblasts; assay: LPA-induced stress fibre formation, TRITC-phalloidin fluorescence; assay type: cell-based; conditions: 3T3 cells, LPA alone (DMSO)
Source text: For the initial analysis, 3T3 cells were used to evaluate the cellular effects of the compounds of the present invention. In these cells changes in the cytoskeleton caused by GTPase activation are well observable, because the cells have a G protein coupled receptor for LPA. A stimulation of 3T3 cells with LPA leads to an activation of RhoA and thereby to the formation of fibrillar actin filaments (F-actin, stress fibres). The participation of AKAP-Lbc as an exchange factor for RhoA within the signal transduction via a G protein of the G−12/13 family was shown.
3T3 mouse fibroblasts were seeded on 30 mm cover slips (in 6 well plates) in a cell density of 2×10^5 cells/well. […]
Following that, the cells were washed with phosphate buffer (Dulbecco's Phosphate-Buffered Saline++) and fixed in 2.5% paraformaldehyde in sodium cacodylate buffer (100 mmol/L sodium cacodylate, 100 mmol/L sucrose, pH 7.4) for 15 min. […] For the microscopic investigations, images were taken with two different fluorescence channels. […]
Without LPA stimulation no stress fibres could be identified after addition of DMSO instead of the compounds of the invention (FIG. 2A, a). […] The quantification of the stress fibre formation were performed with the software package ImageJ by the determination of the overall fluorescence of the TRITC-phalloidin. […]

Row | IC50 [1] [µM] | Compound | frequency after stimulation [3] [bpm] | other results
1 | 39.9 | CCCc1cc(=O)oc2cc3occ(-c4ccc(OC)cc4)c3cc12 [Compound 31864, 3-(4-methoxyphenyl)-5-propyl-furo[3,2-g]chromen-7-one] | – | –
2 | 78.9 | CCCCc1cc(=O)oc2cc3occ(-c4ccc(OC)cc4)c3cc12 [Compound 31892, 5-butyl-3-(4-methoxyphenyl)furo[3,2-g]chromen-7-one] | – | –
3 | – | CNC[C@H](O)c1cccc(O)c1 [PE, phenylephrine, reference compound] | 150 | beat rate of the cardiomyocytes after stimulation [2]: 160 beats per minute; increase in relative amount of α-actin 1 mRNA [4]: threefold increase
4 | – | CNCC(O)c1ccc(O)c(O)c1 (stereo not shown) [adrenaline, reference compound] | 200 | –
5 | – | lysophosphatide acid [LPA, reference compound] | – | formation of stress fibres after stimulation [5]: clear formation of stress fibres
